# Legend:
# Format in all cases: cell-based
# [1] = system: dengue virus (DENV); experiment: microbe, parasite or virus in culture; details: for inhibition at 1 µM: Dengue virus, Vero, 120 h, read-out: Percent viral inhibition DENY
# [2] = system: Marburg virus (MARV); experiment: organism not typed; details: for inhibition at 1 µM: Vero, 72 h, read-out: Percent viral inhibition MARV
# [3] = system: Chikungunya virus (CHIKV); experiment: microbe, parasite or virus in culture; details: for inhibition at 1 µM: Chikungunya virus, Vero, 48 h, read-out: Percent viral inhibition CHKV
SMILES,inhibition at 1 µM [1] [%],inhibition at 1 µM [2] [%],inhibition at 1 µM [3] [%],Percent viral inhibition DENY ([1]; 1 µM) [%],Percent viral inhibition MARV ([2]; 1 µM) [%],Percent viral inhibition CHKV ([3]; 1 µM) [%]
"CNC(=O)NCC1CCN(Cc2cc(Oc3cnc(N4CCN(CCC(=O)O)CC4)c(F)c3)nc(-c3cc(Cl)cc(Cl)c3)c2)CC1 [Example 270, 3-(4-(5-((6-(3,5-dichlorophenyl)-4-((4-((3-methylureido)methyl)piperidin-1-yl)methyl)pyridin-2-yl)oxy)-3-fluoropyridin-2-yl)piperazin-1-yl)propanoic acid]",61.6,53.6,30.7,–,–,–
"CS(=O)(=O)CCCN1CCN(c2ccc(Oc3cc(CN4CCC(CCC(=O)O)CC4)cc(-c4cc(Cl)cc(Cl)c4)n3)cn2)CC1 [Example 271, 3-(1-((2-(3,5-dichlorophenyl)-6-((6-(4-(3-(methylsulfonyl)propyl)piperazin-1-yl)pyridin-3-yl)oxy)pyridin-4-yl)methyl)piperidin-4-yl)propanoic acid]",0,59.7,22.5,–,–,–
"CS(=O)(=O)CCCN1CCN(c2ncc(Oc3cc(CN4CCC(CCC(=O)O)CC4)cc(-c4cc(Cl)cc(Cl)c4)n3)cn2)CC1 [Example 272, 3-(1-((2-(3,5-dichlorophenyl)-6-((2-(4-(3-(methylsulfonyl)propyl)piperazin-1-yl)pyrimidin-5-yl)oxy)pyridin-4-yl)methyl)piperidin-4-yl)propanoic acid]",42.4,45.5,30.3,–,–,–
CC(=O)NCC1CCN(Cc2cc(Oc3cnc(N4CCN(CCC(N)=O)CC4)nc3)nc(-c3cc(F)c(F)c(Cl)c3)c2)CC1 [Example 273],25.4,58.5,23.4,–,–,–
"CNC(=O)NCC1CCN(Cc2cc(Oc3cnc(N4CCN(CCCS(C)(=O)=O)CC4)nc3)nc(-c3cc(F)cc(Cl)c3)c2)CC1 [Example 274, 1-((1-((2-(3-chloro-5-fluorophenyl)-6-((2-(4-(3-(methylsulfonyl)propyl)piperazin-1-yl)pyrimidin-5-yl)oxy)pyridin-4-yl)methyl)piperidin-4-yl)methyl)-3-methylurea]",56.1,49,44.4,–,–,–
"COC(=O)NCC1CCN(Cc2cc(Oc3cnc(N4CCNCC4)nc3)nc(-c3cc(F)cc(Cl)c3)c2)CC1 [Example 275, methyl((1-((2-(3-chloro-5-fluorophenyl)-6-((2-(piperazin-1-yl)pyrimidin-5-yl)oxy)pyridin-4-yl)methyl)piperidin-4-yl)methyl)carbamate]",0,0,0,–,–,–
"CS(=O)(=O)CCC1CCN(Cc2cc(Oc3ccc(N4CCN(CCC(=O)O)CC4)nc3)nc(-c3cc(Cl)cc(Cl)c3)c2)CC1 [Example 276, 3-(4-(5-((6-(3,5-dichlorophenyl)-4-((4-(2-(methylsulfonyl)ethyl)piperidin-1-yl)methyl)pyridin-2-yl)oxy)pyridin-2-yl)piperazin-1-yl)propanoic acid]",27.3,51.8,31.8,–,–,–
"NS(=O)(=O)CCC1CCN(Cc2cc(Oc3ccc(N4CCN(CCC(=O)O)CC4)nc3)nc(-c3cc(Cl)cc(Cl)c3)c2)CC1 [Example 277, 3-(4-(5-((6-(3,5-dichlorophenyl)-4-((4-(2-sulfamoylethyl)piperidin-1-yl)methyl)pyridin-2-yl)oxy)pyridin-2-yl)piperazin-1-yl)propanoic acid]",21.7,61.8,11.7,–,–,–
"O=C(O)CC1CCN(Cc2cc(Oc3cnc(N4CCN(CCC5(O)CC5)CC4)nc3)nc(-c3cc(Cl)cc(Cl)c3)c2)CC1 [Example 278, 2-(1-((2-(3,5-dichlorophenyl)-6-((2-(4-(2-(1-hydroxycyclopropyl)ethyl)piperazin-1-yl)pyrimidin-5-yl)oxy)pyridin-4-yl)methyl)piperidin-4-yl)acetic acid]",45.5,81.7,45.6,–,–,–
"CC(C)(O)CCN1CCN(c2ncc(Oc3cc(CN4CCC(CC(=O)O)CC4)cc(-c4cc(Cl)cc(Cl)c4)n3)cn2)CC1 [Example 279, 2-(1-((2-(3,5-dichlorophenyl)-6-((2-(4-(3-hydroxy-3-methylbutyl)piperazin-1-yl)pyrimidin-5-yl)oxy)pyridin-4-yl)methyl)piperidin-4-yl)acetic acid]",27.5,18.8,37.8,–,–,–
"CC(=O)NCC1CCN(Cc2cc(Oc3cnc(N4CCN(C(C)CC(=O)O)CC4)nc3)nc(-c3cc(Cl)cc(Cl)c3)c2)CC1 (stereo not drawn) [Example 282, 3-(4-(5-((4-((4-(acetamidomethyl)piperidin-1-yl)methyl)-6-(3,5-dichlorophenyl)pyridin-2-yl)oxy)pyrimidin-2-yl)piperazin-1-yl)butanoic acid]",21.8,63.7,8.2,–,–,–
"CC(=O)NCC1CCN(Cc2cc(Oc3cnc(N4CCN(CC(C)C(=O)O)CC4)nc3)nc(-c3cc(Cl)cc(Cl)c3)c2)CC1 (stereo not drawn) [Example 283, 3-(4-(5-((4-((4-(acetamidomethyl)piperidin-1-yl)methyl)-6-(3,5-dichlorophenyl)pyridin-2-yl)oxy)pyrimidin-2-yl)piperazin-1-yl)-2-methylpropanoic acid]",43.8,49.6,29.8,–,–,–
"CC(=O)NCC1CCN(Cc2cc(Oc3cnc(N4CCN(CCS(C)(=O)=O)CC4)nc3)nc(-c3cc(Cl)cc(Cl)c3)c2)CC1 [Example 285, N-((1-((2-(3,5-dichlorophenyl)-6-((2-(4-(2-(methylsulfonyl)ethyl)piperazin-1-yl)pyrimidin-5-yl)oxy)pyridin-4-yl)methyl)piperidin-4-yl)methyl)acetamide]",22.9,80.4,35.3,–,–,–
"CC(=O)NCC1CCN(Cc2cc(Oc3cnc(N4CCN(CCS(N)(=O)=O)CC4)nc3)nc(-c3cc(Cl)cc(Cl)c3)c2)CC1 [Example 286, N-((1-((2-(3,5-dichlorophenyl)-6-((2-(4-(2-sulfamoylethyl)piperazin-1-yl)pyrimidin-5-yl)oxy)pyridin-4-yl)methyl)piperidin-4-yl)methyl)acetamide]",0,19.2,0,–,–,–
"CCC(CN1CCN(c2ccc(Oc3cc(CN4CCC(CNC(C)=O)CC4)cc(-c4cc(Cl)cc(Cl)c4)n3)cn2)CC1)C(=O)O (stereo not drawn) [Example 288, 2-((4-(5-((4-((4-(acetamidomethyl)piperidin-1-yl)methyl)-6-(3,5-dichlorophenyl)pyridin-2-yl)oxy)pyridin-2-yl)piperazin-1-yl)methyl)butanoic acid]",52.2,49.1,28.2,–,–,–
"CC(=O)NCC1CCN(Cc2cc(Oc3ccc(N4CCN(CCS(N)(=O)=O)CC4)nc3)nc(-c3cc(Cl)cc(Cl)c3)c2)CC1 [Example 289, N-((1-((2-(3,5-dichlorophenyl)-6-((6-(4-(2-sulfamoylethyl)piperazin-1-yl)pyridin-3-yl)oxy)pyridin-4-yl)methyl)piperidin-4-yl)methyl)acetamide]",–,–,–,43.48,40.64,28.95
"CNC(=O)NCC1CCN(Cc2cc(Oc3ccc(N4CCN(CCS(C)(=O)=O)CC4)nc3)nc(-c3cc(Cl)cc(Cl)c3)c2)CC1 [Example 290, 1-((1-((2-(3,5-dichlorophenyl)-6-((6-(4-(2-(methylsulfonyl)ethyl)piperazin-1-yl)pyridin-3-yl)oxy)pyridin-4-yl)methyl)piperidin-4-yl)methyl)-3-methylurea]",18.9,50.6,0,–,–,–
"CNC(=O)NCC1CCN(Cc2cc(Oc3cnc(N4CCN(CC(C)C(=O)O)CC4)nc3)cc(-c3cc(Cl)cc(Cl)c3)c2)CC1 (stereo not drawn) [Example 292, 3-(4-(5-((3′,5′-dichloro-5-((4-((3-methylureido)methyl)piperidin-1-yl)methyl)-[1,1′-biphenyl]-3-yl)oxy)pyrimidin-2-yl)piperazin-1-yl)-2-methylpropanoic acid]",26,54.2,15.9,–,–,–
"CC(=O)NCC1CCN(Cc2cc(Oc3ccc(N4CCN(CCS(C)(=O)=O)CC4)nc3)cc(-c3cc(Cl)cc(Cl)c3)c2)CC1 [Example 293, N-((1-((3′,5′-dichloro-5-((6-(4-(2-(methylsulfonyl)ethyl)piperazin-1-yl)pyridin-3-yl)oxy)-[1,1′-biphenyl]-3-yl)methyl)piperidin-4-yl)methyl)acetamide]",0,0,0,–,–,–
"COC(=O)NCC1CCN(Cc2cc(Oc3cnc(N4CCN(CCC(=O)O)[C@@H](C)C4)nc3)nc(-c3cc(Cl)cc(Cl)c3)c2)CC1 [Example 294, (S)-3-(4-(5-((6-(3,5-dichlorophenyl)-4-((4-(((methoxycarbonyl)amino)methyl)piperidin-1-yl)methyl)pyridin-2-yl)oxy)pyrimidin-2-yl)-2-methyl-piperazin-1-yl)propanoic acid]",57.7,54.2,28.7,–,–,–
"C[C@@H](O)CN1CCN(c2ncc(Oc3cc(CN4CCC(CC(=O)O)CC4)cc(-c4cc(Cl)cc(Cl)c4)n3)cn2)CC1 [Example 298, (R)-2-(1-((2-(3,5-dichlorophenyl)-6-((2-(4-(2-hydroxypropyl)piperazin-1-yl)pyrimidin-5-yl)oxy)pyridin-4-yl)methyl)piperidin-4-yl)acetic acid]",57,55.1,20.7,–,–,–
"O=C(O)CC1CCN(Cc2cc(Oc3ccc(N4CCN(CCO)CC4)nc3)nc(-c3cc(Cl)cc(Cl)c3)c2)CC1 [Example 300, 2-(1-((2-(3,5-dichlorophenyl)-6-((6-(4-(2-hydroxyethyl)piperazin-1-yl)pyridin-3-yl)oxy)pyridin-4-yl)methyl)piperidin-4-yl)acetic acid]",0,45,18.2,–,–,–

# — patent publication US20230011571A1, “SMALL MOLECULE FURIN INHIBITORS FOR TREATING INFECTIOUS DISEASES” (BP Asset V, Inc., priority 2019, published 2023)
